Laboratory results reported in the NIST ThermoML archive (doi:10.1016/j.tca.2012.02.002).

Assay: molar heat capacity at constant pressure
Details: 101.33 kPa, Crystal

O=P([O-])([O-])[O-].[Er+3] [erbium phosphate]
Details	molar heat capacity at constant pressure [J/K/mol]
48.02 K, Vacuum adiabatic calorimetry	18.68
49.64 K, Vacuum adiabatic calorimetry	19.56
50 K, Drop calorimetry	19.7
51.27 K, Vacuum adiabatic calorimetry	20.45
52.9 K, Vacuum adiabatic calorimetry	21.35
54.54 K, Vacuum adiabatic calorimetry	22.23
55 K, Drop calorimetry	22.45
56.17 K, Vacuum adiabatic calorimetry	23.13
57.81 K, Vacuum adiabatic calorimetry	24.03
59.46 K, Vacuum adiabatic calorimetry	24.96
60 K, Drop calorimetry	25.28
61.11 K, Vacuum adiabatic calorimetry	25.9
62.76 K, Vacuum adiabatic calorimetry	26.86
64.41 K, Vacuum adiabatic calorimetry	27.81
65 K, Drop calorimetry	28.13
66.06 K, Vacuum adiabatic calorimetry	28.75
67.72 K, Vacuum adiabatic calorimetry	29.67
69.38 K, Vacuum adiabatic calorimetry	30.58
70 K, Drop calorimetry	30.96
71.24 K, Vacuum adiabatic calorimetry	31.56
73.31 K, Vacuum adiabatic calorimetry	32.73
75 K, Drop calorimetry	33.73
75.38 K, Vacuum adiabatic calorimetry	33.9
77.44 K, Vacuum adiabatic calorimetry	35.09
78.64 K, Vacuum adiabatic calorimetry	35.5
79.51 K, Vacuum adiabatic calorimetry	36.27
80 K, Drop calorimetry	36.43
81 K, Vacuum adiabatic calorimetry	37.03
81.57 K, Vacuum adiabatic calorimetry	37.33
83.05 K, Vacuum adiabatic calorimetry	38
83.64 K, Vacuum adiabatic calorimetry	38.24
85 K, Drop calorimetry	39.03
85.11 K, Vacuum adiabatic calorimetry	38.94
85.72 K, Vacuum adiabatic calorimetry	39.22
87.17 K, Vacuum adiabatic calorimetry	40.21
87.79 K, Vacuum adiabatic calorimetry	40.58
89.22 K, Vacuum adiabatic calorimetry	41.36
89.86 K, Vacuum adiabatic calorimetry	41.58
90 K, Drop calorimetry	41.53
91.28 K, Vacuum adiabatic calorimetry	42.3
91.94 K, Vacuum adiabatic calorimetry	42.51
93.33 K, Vacuum adiabatic calorimetry	43.21
94.02 K, Vacuum adiabatic calorimetry	43.42
95 K, Drop calorimetry	43.93
95.39 K, Vacuum adiabatic calorimetry	44.16
96.11 K, Vacuum adiabatic calorimetry	44.4
97.45 K, Vacuum adiabatic calorimetry	45.11
99.5 K, Vacuum adiabatic calorimetry	46.06
100 K, Drop calorimetry	46.24
102.17 K, Vacuum adiabatic calorimetry	47.11
105.46 K, Vacuum adiabatic calorimetry	48.46
108.74 K, Vacuum adiabatic calorimetry	50.01
110 K, Drop calorimetry	50.59
112.02 K, Vacuum adiabatic calorimetry	51.4
115.31 K, Vacuum adiabatic calorimetry	52.75
118.6 K, Vacuum adiabatic calorimetry	54.1
120 K, Drop calorimetry	54.66
121.89 K, Vacuum adiabatic calorimetry	55.38
125.18 K, Vacuum adiabatic calorimetry	56.65
128.48 K, Vacuum adiabatic calorimetry	57.9
130 K, Drop calorimetry	58.5
131.77 K, Vacuum adiabatic calorimetry	59.15
135.06 K, Vacuum adiabatic calorimetry	60.36
138.35 K, Vacuum adiabatic calorimetry	61.56
140 K, Drop calorimetry	62.15
141.64 K, Vacuum adiabatic calorimetry	62.75
144.92 K, Vacuum adiabatic calorimetry	63.93
148.21 K, Vacuum adiabatic calorimetry	65.06
150 K, Drop calorimetry	65.63
151.5 K, Vacuum adiabatic calorimetry	66.19
154.79 K, Vacuum adiabatic calorimetry	67.31
158.07 K, Vacuum adiabatic calorimetry	68.34
160 K, Drop calorimetry	68.95
161.36 K, Vacuum adiabatic calorimetry	69.45
164.64 K, Vacuum adiabatic calorimetry	70.45
167.92 K, Vacuum adiabatic calorimetry	71.48
170 K, Drop calorimetry	72.09
171.18 K, Vacuum adiabatic calorimetry	72.5
174.46 K, Vacuum adiabatic calorimetry	73.47
177.73 K, Vacuum adiabatic calorimetry	74.42
180 K, Drop calorimetry	75.06
181 K, Vacuum adiabatic calorimetry	75.35
184.26 K, Vacuum adiabatic calorimetry	76.23
187.53 K, Vacuum adiabatic calorimetry	77.14
190 K, Drop calorimetry	77.87
190.79 K, Vacuum adiabatic calorimetry	77.99
194.05 K, Vacuum adiabatic calorimetry	78.87
197.31 K, Vacuum adiabatic calorimetry	79.82
200 K, Drop calorimetry	80.51
200.56 K, Vacuum adiabatic calorimetry	80.61
204.21 K, Vacuum adiabatic calorimetry	81.51
208.26 K, Vacuum adiabatic calorimetry	82.53
210 K, Drop calorimetry	83.03
212.31 K, Vacuum adiabatic calorimetry	83.53
216.35 K, Vacuum adiabatic calorimetry	84.52
220 K, Drop calorimetry	85.43
220.38 K, Vacuum adiabatic calorimetry	85.53
228.3 K, Vacuum adiabatic calorimetry	87.52
230 K, Drop calorimetry	87.73
232.31 K, Vacuum adiabatic calorimetry	88.39
236.31 K, Vacuum adiabatic calorimetry	89.17
240 K, Drop calorimetry	89.95
240.3 K, Vacuum adiabatic calorimetry	90.08
244.27 K, Vacuum adiabatic calorimetry	90.89
248.24 K, Vacuum adiabatic calorimetry	91.71
250 K, Drop calorimetry	92.08
252.19 K, Vacuum adiabatic calorimetry	92.54
256.13 K, Vacuum adiabatic calorimetry	93.34
260 K, Drop calorimetry	94.13
260.05 K, Vacuum adiabatic calorimetry	94.13
263.96 K, Vacuum adiabatic calorimetry	94.97
267.82 K, Vacuum adiabatic calorimetry	95.68
270 K, Drop calorimetry	96.08
271.7 K, Vacuum adiabatic calorimetry	96.34
275.56 K, Vacuum adiabatic calorimetry	97.1
279.36 K, Vacuum adiabatic calorimetry	97.78
280 K, Drop calorimetry	97.93
283.13 K, Vacuum adiabatic calorimetry	98.4
286.87 K, Vacuum adiabatic calorimetry	99.05
290 K, Drop calorimetry	99.69
290.33 K, Vacuum adiabatic calorimetry	99.68
294.03 K, Vacuum adiabatic calorimetry	100.3
297.69 K, Vacuum adiabatic calorimetry	101
300 K, Drop calorimetry	101.4
301.33 K, Vacuum adiabatic calorimetry	101.7
305.3 K, Vacuum adiabatic calorimetry	102.4
310 K, Drop calorimetry	103
311.36 K, Vacuum adiabatic calorimetry	103.5
318.34 K, Vacuum adiabatic calorimetry	104.6
320 K, Drop calorimetry	104.8
325.26 K, Vacuum adiabatic calorimetry	105.6
330 K, Drop calorimetry	106.5
332.11 K, Vacuum adiabatic calorimetry	106.5
338.88 K, Vacuum adiabatic calorimetry	107.5
340 K, Drop calorimetry	108.2
345.58 K, Vacuum adiabatic calorimetry	108.5
350 K, Drop calorimetry	109.8
400 K, Drop calorimetry	116.9
450 K, Drop calorimetry	122.8
500 K, Drop calorimetry	127.7
550 K, Drop calorimetry	131.8
600 K, Drop calorimetry	135.4
650 K, Drop calorimetry	138.4
700 K, Drop calorimetry	141
750 K, Drop calorimetry	143.3
800 K, Drop calorimetry	145.3
850 K, Drop calorimetry	147.1
900 K, Drop calorimetry	148.8
950 K, Drop calorimetry	150.2
1000 K, Drop calorimetry	151.6
1050 K, Drop calorimetry	152.8
1100 K, Drop calorimetry	154
1150 K, Drop calorimetry	155.1
1200 K, Drop calorimetry	156.1
1250 K, Drop calorimetry	157.1
1300 K, Drop calorimetry	158.1
1350 K, Drop calorimetry	158.9
1400 K, Drop calorimetry	159.8
1450 K, Drop calorimetry	160.6
1500 K, Drop calorimetry	161.4
1550 K, Drop calorimetry	162.2
1600 K, Drop calorimetry	162.9
